Patent US20210381051A1, “DNA METHYLATION BIOMARKER OF AGING FOR HUMAN EX VIVO AND IN VIVO STUDIES” (The Regents of the University of California, priority 2018, published 2021)

What was measured:
[1] = system: progerin accumulation in HGPS cells; settings: in vitro studies [41, 42]; cited from earlier work
[2] = system: neonatal dermal fibroblasts; assay: Ex vivo epigenetic aging of fibroblasts by the skin & blood clock; format: cell-based, human; settings: suggestive evidence
Text: (§1) FIG. 6. Ex vivo study of compounds that may accelerate or decelerate epigenetic aging. A) Effect of Y-27632 and rapamycin treatment on neonatal keratinocytes measured by the skin & blood clock. B) Effect of oestrogen on neonatal dermal fibroblasts.
(§2) By its ability to quantitatively track aging of human cells ex vivo, the skin & blood clock lends itself to be used in the development of an ex vivo human cell aging assay that can be used for testing and screening compounds with anti-aging or pro-aging effects.

HGPS patients = settings: after 2.2 years of follow-up, 27% death in the matched untreated group; cited from earlier work
[3] = system: primary human keratinocytes from neonatal foreskins; assay: Ex vivo human cell aging assay: DNAm age of cultured keratinocytes by the skin & blood clock; format: cell-based
Text: as §1, §2
(§3) Primary keratinocytes were isolated from human neonatal foreskins from three donors (Donor A, B and C) and were put in culture with standard media or media supplemented with rapamycin, Y-27632 or a cocktail of both of these compounds (methods). The cells were passaged continually and population doublings at each passage recorded. In time all cells, regardless of donor or treatment underwent replicative senescence, where they ceased to increase their numbers after at least 2 weeks in culture with regular replenishment of media. […] DNA methylation profiles from a selection of passages of these cells were obtained and analysed with the skin & blood clock. […]
(§4) Primary human neonatal fibroblasts were isolated from circumcised foreskins. […] Upon confluence, cells were trypsinised, counted and 100,000 were seeded into fresh fibronectin/collagen-coated plates. […]

[4] = system: primary human keratinocytes; assay: Keratinocyte proliferation rate and proliferative capacity (population doublings); format: cell-based; settings: rapamycin 25 nM, Y-27632 1 μM
Text: The availability of an epigenetic clock, such as the skin & blood clock, which is applicable to cultured cells, allows epigenetic ageing to be studied beyond the purely descriptive nature afforded by epidemiological analyses alone. Towards this end, we have established in vitro epigenetic ageing systems using primary human cells. One of this is based on primary keratinocytes that are derived from healthy human skins. […] The opposing effects of these compounds on keratinocyte proliferation present us with the opportunity to test whether cellular proliferation rate impacts epigenetic ageing while carrying out our primary aim of interrogating the effects of rapamycin on epigenetic ageing.
as §3, with “recorded.” for “recorded. In time all cells, regardless of donor or treatment underwent replicative senescence, where they ceased to increase their numbers after at least 2 weeks in culture with regular replenishment of media.”
as §4

For CN(C)C(=N)N=C(N)N [metformin], the “progerin accumulation and cellular HGPS phenotypes” value [1] is given as “reduction of progerin accumulation”.

In the case of estrogen, the “epigenetic aging (skin & blood clock), FIG. 6B” value [2] is reported as “associated with slower epigenetic aging”.

For NC(=O)N1CCC(CC(=O)N2CCC([C@H]3c4ncc(Br)cc4CCc4cc(Cl)cc(Br)c43)CC2)CC1 [lonafarnib], the “death in the treated group” value (HGPS patients) is given as 6.3%.

In the case of C[C@@H](N)[C@H]1CC[C@H](C(=O)Nc2ccncc2)CC1 [Y-27632], the “epigenetic aging (skin & blood clock), FIG. 6A” value ([3]; Example 1, dividing / neonatal keratinocytes, suggestive evidence) is reported as “appears to increase epigenetic aging”, the “epigenetic ageing (skin & blood clock)” value ([3]; Example 2, neonatal foreskin keratinocytes of three donors, CnT-07 medium, rapamycin 25 nM, Y-27632 1 μM, present for the entire duration) is reported as “did not impose any appreciable effect” and the “cellular proliferation rate (population doublings per unit of time)” value [4] is reported as “increases it”.
